Experimental data: patent publication US5998414A, “Troponyl piperazines as dopamine D4 receptor ligands” (priority 1997, dated 1999)

Legend:
[1] = target: human D2 receptor (short isoform) (Homo sapiens, UniProt P14416); assay: D2 receptor displacement binding assay (3H-spiperone, membrane homogenate of stably transfected GH4 C1 cells), used for D2/D4 selectivity; conditions: ratio D2/D4, 3H-spiperone displacement
Method: (§1) The potency of the test compound to reduce ^3 H-spiperone binding directly correlated to its binding affinity for the receptor.
GH4 C1 (rat pituitary) cells stably transfected with the human D2 receptor (short isoform) were grown in HAM'S F10 media in NUNC cell factories for 5 days. 100 μM ZnSO4 was added to the cells (the D2 promoter being zinc inducible). After 16 hours, fresh media was added to allow the cells to recover for 24 hours. The cells were harvested using versine and then centrifuged in a Sorval centrifuge for 10 minutes, at 5000 rpm (GS3 rotor). Pellets were quickly frozen in liquid nitrogen and stored at -80° C. until used in the binding assays. When used in the assay, cells were thawed on ice for 20 minutes. […] The receptor protein concentration was determined using the Pierce BCA assay.
(§2) Total Spiperone Binding Assay
(§3) The plates were vortexed and incubated at room temperature for 90 minutes. The binding reaction was stopped by filtering using a Packard Harvester. The samples were filtered under vacuum over glass fibre filter plates (Whatman GF/B) presoaked for 2 hours in 0.3% polyethylenimine (PEI) in 50 mM Tris buffer (pH 7.4). The filters were then washed 6 times with 7 ml ice cold 50 mM Tris buffer (pH 7.4). The filter plates were dried overnight and 35 μl of Microscint-O (Packard) was added. The plates were sealed and counted in the Packard Top Count (3 minutes per well).
Non-specific Binding Assay for D2
This assay employed the same procedures as the non-specific binding assay for D4 with the exception that 2 μM (final conc.) of (-) sulpiride (Research Chemicals Inc.) was used in place of dopamine.
(§4) Displacement Binding Assay
(§5) The incubation was started by the addition, in 96-well polypropylene plates (1 mL per well), of 100 μl (50 μg protein) membrane homogenate to a solution of 200 μl incubation buffer, 100 μl ([…].) ^3 H-spiperone (90 Ci/mmol, Amersham, diluted in borosilicate glass vial) and 100 μl of test compound that was prepared from 1 mM stock dissolved in DMSO and stored at -20° C. in polypropylene cryogenic storage vials until dilution in incubation buffer in 96-well polypropylene plates. The plates were vortexed and incubated at room temperature for 90 minutes at which time the binding reaction was stopped by filtering. The filters were washed and counted using the same procedure as in the total binding assay described above to give the displacement binding value (BD).
(§6) IC50 was determined from an inhibition response curve, logit-log plot of %B/B0 vs concentration of test compound.
(§7) Ki was calculated by the Cheng and Prustoff transformation: […]
(§8) where [L] is the concentration of ^3 H-spiperone used in the assay and KD is the dissociation constant of ^3 H-spiperone determined independently under the same binding conditions.

[2] = target: T1, human D4 receptor (D4.2 sub-type) (Homo sapiens, UniProt P21917, DEL265-296); assay: D4 receptor displacement binding assay (3H-spiperone, membrane homogenate of stably transfected HEK 298 cells); conditions: 3H-spiperone displacement, human D4.2, HEK cells; Cheng and Prustoff transformation of IC50; read-out: D4 affinity Ki
T1 construct: expressed in transfected cells; host or cells: HEK 298 (human embryonic kidney) cells (so in the source); membrane homogenate
T1 sequence (P21917 with tags, fused parts or gaps DEL265-296): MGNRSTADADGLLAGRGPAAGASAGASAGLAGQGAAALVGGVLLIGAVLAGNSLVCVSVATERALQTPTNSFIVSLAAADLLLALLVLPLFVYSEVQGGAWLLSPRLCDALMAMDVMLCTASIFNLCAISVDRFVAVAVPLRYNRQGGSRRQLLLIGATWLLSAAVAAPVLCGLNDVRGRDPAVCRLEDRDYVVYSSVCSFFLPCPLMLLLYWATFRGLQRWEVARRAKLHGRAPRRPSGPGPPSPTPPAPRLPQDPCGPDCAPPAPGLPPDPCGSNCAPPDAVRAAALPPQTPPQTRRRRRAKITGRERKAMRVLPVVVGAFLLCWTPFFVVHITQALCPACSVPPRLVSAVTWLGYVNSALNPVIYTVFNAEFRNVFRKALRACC
Method: as §1
The cells were then centrifuged in a Sorval centrifuge for 10 min, 5000 rpm (GS3 rotor) and the pellets quickly frozen in liquid nitrogen and stored at -80° C. until used in binding assay. When used in the assay, cells were thawed on ice for 20 min and then 10 ml of incubation buffer (50 mM Tris, 1 mM EDTA, 4 mM MgCl2, 5 mM KCl, 1.5 mM CaCl2, 120 mM NaCl, pH 7.4) was added. […] Concentration of receptor protein was determined using the Pierce BCA assay.
as §2, §3
Non-specific Binding Assay for D4
The plates were vortexed and incubated at room temperature for 90 minutes at which time the binding reaction was stopped by filtering. The filters were washed and counted using the same procedure as in the total binding assay described above to give the non-specific binding value (NSB).
as §4, §5, §6, §7, §8

[3] = target: T2, human D4.2 receptors (Homo sapiens, UniProt P21917, DEL265-296); assay: Functional antagonist assay: reversal of dopamine inhibition of forskolin-stimulated adenyl cyclase (cAMP) in CHO Pro 5 cells; format: cell-based; conditions: dopamine and forskolin both 10 μM, read-out: % reversal of dopamine effect; for inhibition at 1 µM: 1 μM test compound; for inhibition at 10 µM: 10 μM test compound
T2 construct: expressed in transfected cells; host or cells: CHO Pro 5 cells
T2 sequence (P21917 with tags, fused parts or gaps DEL265-296): T1 sequence (P21917 with tags, fused parts or gaps DEL265-296)
Method: The D4 receptor responds to dopamine and other agonists by reducing adenyl cyclase mediated production of cyclic AMP. Particular test compounds were assayed for their ability to reverse dopamine inhibition of adenyl cyclase by the following procedure. Forskolin was used to elevate the basal adenyl cyclase activity.
CHO Pro 5 cells stably expressing human D4.2 receptors were plated in 6 well plates in DMEM (Dulbecco's Modified Eagle Medium)/F12(Nutrient Mixture F12 (Ham)) media with 10% FCS (fetal calf serum) and G418 (Geneticen Disulfate), and incubated at 37° C. in a CO2 incubator. The cells were allowed to grow to about 70% confluence before use in the assay.
The culture media of each well was removed, and the wells were washed once with serum free media (SFM) (DMEM/F12) media. Then 2 mL of fresh SFM+IBMX media (SFM with 0.5 mM IBMX, 3-isobutyl-1-methylxanthine, 0.1% ascorbic acid and 10 μM pargyline) was added to each well and then incubated at 37° C. for 10 minutes in a CO2 incubator. […] Basal adenyl cyclase activity was determined from wells with only SFM+IBMX media added.
The cells were then incubated at 37° C. for 30 minutes in a CO2 incubator. Following incubation the media was removed from each well and then washed once with 1 mL of PBS (phosphate buffered saline). […] The cells from each well were then scraped and transferred into individual Eppendorf tubes. The tubes were centrifuged for 5 min at 4° C., and the supernatants were transferred to new Eppendorf tubes.
Total inhibition (I0) of forskolin-stimulated adenyl cyclase activity by dopamine was determined as the difference in concentration of cAMP in the forskolin-treated cells (Cf) and dopamine-forskolin treated cells (Cd).
Net inhibition (I) of forskolin-stimulated adenyl cyclase activity by dopamine in the presence of an antagonist was determined as the difference in concentration of cAMP in the forskolin-treated cells (Cf) and test compound, dopamine and forskolin treated cells (C).
The ability of the test compounds to reverse the dopamine inhibition (% reversal, % R) was determined by the formula: […]

[4] = system: D2 receptor; conditions: background, marketed products; cited from earlier work
[5] = target: D4 receptor; conditions: background, marketed products; cited from earlier work

Sequence of human D2 receptor (short isoform) (P14416 with tags, fused parts or gaps DEL242-270): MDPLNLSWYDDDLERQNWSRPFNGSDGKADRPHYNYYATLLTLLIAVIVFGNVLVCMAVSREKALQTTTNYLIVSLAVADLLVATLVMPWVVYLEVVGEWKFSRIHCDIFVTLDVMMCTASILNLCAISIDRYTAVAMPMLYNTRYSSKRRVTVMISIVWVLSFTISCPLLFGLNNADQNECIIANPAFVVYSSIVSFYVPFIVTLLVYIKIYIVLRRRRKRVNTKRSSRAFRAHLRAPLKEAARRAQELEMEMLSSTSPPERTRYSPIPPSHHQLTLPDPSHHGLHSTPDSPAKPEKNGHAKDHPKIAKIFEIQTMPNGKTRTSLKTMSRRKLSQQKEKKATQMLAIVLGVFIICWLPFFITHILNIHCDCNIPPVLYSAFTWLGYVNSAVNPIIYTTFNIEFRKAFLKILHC

With `O=c1cccccc1N1CCN(Cc2ccc3ccccc3c2)CC1` as the compound, how does the D2/D4 selectivity [1] read?
Its D2/D4 selectivity is 321.

And the Ki [2]?
Its Ki is 2.24 nM.

Which results are given for `O=c1c(-c2cccs2)ccccc1N1CCN(Cc2ccc3c(c2)OCO3)CC1` [2-(4-Piperonyl-1-piperazinyl)7-thien2-yl-2,4,6-cycloheptatriene-1-one]?
D2/D4 selectivity [1]: 34; Ki [2]: 11.9 nM

Which D2/D4 selectivity [1] does the source give for `O=c1cccccc1N1CCN(Cc2ccc3c(c2)OCO3)CC1` [2-(4-Piperonyl-1-piperazinyl)-2,4,6-cycloheptatriene-1-one] here?
The D2/D4 selectivity was 154.

And the inhibition at 1 µM [3]?
The inhibition at 1 µM was 32%.

What about the inhibition at 10 µM [3] of the same compound?
Its inhibition at 10 µM is 65%.

And the Ki [2]?
Its Ki is 7.15 nM.

For `CCCCCCN1CCN(c2cccccc2=O)CC1` [2-(4-hexyl-1-piperazinyl)-2,4,6-cycloheptatriene-1-one], which D2/D4 selectivity [1] is on record?
Its D2/D4 selectivity is 23.

What about the inhibition at 1 µM [3] of the same compound?
Its inhibition at 1 µM is 45%.

What about the inhibition at 10 µM [3] of the same compound?
Its inhibition at 10 µM is 50%.

And the Ki [2]?
Its Ki is 33.3 nM.

With `COc1cccc(CN2CCN(c3cccccc3=O)CC2)c1` [2-[4-(3-Methoxybenzyl)-1-piperazinyl]-2,4,6-cycloheptatriene-1-one] as the compound, how does the D2/D4 selectivity [1] read?
Its D2/D4 selectivity is 137.

And the Ki [2]?
Its Ki is 19.2 nM.

What does the source list for `O=c1cccccc1N1CCN(Cc2cccc(Br)c2)CC1` [2-[4-(3-bromobenzyl)-1-piperazinyl]-2,4,6-cycloheptatriene-1-one]?
D2/D4 selectivity [1]: 53; Ki [2]: 9.58 nM

Which D2/D4 selectivity [1] does the source give for `O=c1cccccc1N1CCN(Cc2cccc(C(F)(F)F)c2)CC1` [2-[4-(3-trifluoromethylbenzyl)-1-piperazinyl]-2,4,6-cycloheptatriene-1-one] here?
Its D2/D4 selectivity is 28.

And the Ki [2]?
The Ki was 21.5 nM.

What does the source list for `O=c1cccccc1N1CCN(Cc2ccc(Br)cc2)CC1` [2-[4-(4-bromobenzyl)-1-piperazinyl]-2,4,6-cycloheptatriene-1-one]?
D2/D4 selectivity [1]: 935; Ki [2]: 0.82 nM

Which results are given for `N#Cc1ccc(CN2CCN(c3cccccc3=O)CC2)cc1` [2-[4-(4-cyanobenzyl)-1-piperazinyl]-2,4,6-cycloheptatriene-1-one]?
D2/D4 selectivity [1]: 169; Ki [2]: 29.5 nM

Which results are given for `Cc1ccc(CN2CCN(c3cccccc3=O)CC2)cc1` [2-[4-(4-methylbenzyl)-1-piperazinyl]-2,4,6-cycloheptatriene-1-one]?
D2/D4 selectivity [1]: 443; Ki [2]: 1.46 nM

What does the source list for `O=c1cccccc1N1CCN(Cc2ccc([N+](=O)[O-])cc2)CC1` [2-[4-(4-nitrobenzyl)-1-piperazinyl]-2,4,6-cycloheptatriene-1-one]?
D2/D4 selectivity [1]: 1014; Ki [2]: 6.67 nM

What does the source list for `O=c1cccccc1N1CCN(Cc2ccc(OC(F)(F)F)cc2)CC1` [2-[4-(4-trifluoromethoxybenzyl)-1-piperazinyl]-2,4,6-cycloheptatriene-1-one]?
D2/D4 selectivity [1]: 367; Ki [2]: 2.18 nM

Which D2/D4 selectivity [1] does the source give for `O=c1cccccc1N1CCN(Cc2ccc(C(F)(F)F)cc2)CC1` [2-[4-(4-trifluoromethylbenzyl)-1-piperazinyl]-2,4,6-cycloheptatriene-1-one] here?
The D2/D4 selectivity was 598.

And the Ki [2]?
The Ki was 4.22 nM.

What does the source list for `O=c1c(Br)ccccc1N1CCN(Cc2ccc3c(c2)OCO3)CC1` [7-bromo-2-(4-piperonyl-1-piperazinyl)-2,4,6-cycloheptatriene-1-one]?
D2/D4 selectivity [1]: 104; Ki [2]: 0.226 nM

Which “preference for binding the D4 receptor relative to the D2 receptor” value [4] does the source give for `CN1CCN(C2=Nc3cc(Cl)ccc3Oc3ccccc32)CC1` [isoloxapine] here?
The value was “about 10 fold”.

What about the Ki [5] of the same compound?
The Ki was roughly 20 nM.
